From patent EP0125439A2, “3,6-Disubstituted-1,8-naphthalimides and methods for their production and use” (WARNER-LAMBERT COMPANY, priority 1983, dated 1984)
Where a name gives a salt, the structure may show the parent alone. Read-outs that look alike come from different tables or passages of the source.

What was measured:
[1] = tested on: lymphocytic leukemia P388; test: in vivo lymphocytic leukemia P388 test; set-up: species or system CD2Fl mice; details: survival time treated/control
Experimental: Another test protocol is the in vivo lymphocytic leukemia P388 test. The animals used are either male or female CD2Fl mice, six or seven animals per test group. The tumor transplant is by intraperitoneal injection of dilute ascitic fluid containing cells of lymphocytic leukemia P388. The test compounds are administered intraperitoneally once daily for five consecutive days at various doses following tumor inoculation. The animals are weighed and survivors are recorded on a regular basis for 30 days. A compound is designated "toxic" if, at a given dose, all animals died prior to four days after the first injection of drug. A ratio of survival time for treated (T)/control (C) animals is calculated. A criterion for efficacy is a ratio T/C times 100 greater than or equal to 125. See Cancer Chemotherapy Reports, Part 3, 3, 1 (1972) for a comprehensive discussion of the protocol.

mouse tumor line L1210 = test: growth inhibition of L1210 in suspension cell culture; type: cell-based; details: read-out: L1210 Leukemia In Vitro ID50
Experimental: In another test protocol, growth-inhibitory effects are measured against the mouse tumor line L1210 in suspension cell culture. Cell cultures were initiated at a density of 50,000 cells/ml in medium RPMI 1630 supplemented with 10 percent fetal calf serum. Composition of this culture medium and details of the culture procedure follow the published method (Journal of the National Cancer Institute 36, 405-415, 1966). Cultures are maintained at 37 degrees in stationary suspension culture under a 95 percent air + 5 percent C02 atmosphere. Test compounds are added to treated cultures at the time of initiation, and are present continually. After 72 hours, 40-fold dilutions of drug- treated and untreated control cultures are prepared in 0.9 percent NaCl solution, and cells are counted on an electronic particle counter. The growth-inhibitory effects are expressed as IDSO values, namely, test compound inhibitory dosages or concentrations required to decrease cell count in treated cultures to 50 percent of the cell count of untreated control cultures.

B16 melanoma = test: solid tumor B16 melanoma in mice; type: in vivo; details: survival time treated/control
Experimental: Another test protocol utilizes the solid tumor B16 melanoma in mice. The tumor is inoculated by intraperitoneal injection. The test compounds are administered intraperitoneally once daily for nine consecutive days at various doses following tumor inoculation. A ratio of survival time for treated (T)/control (C) animals is calculated. A criterion for efficacy is a ratio T/C times 100 greater than or equal to 125. See Cancer Therapy Reviews, 7, 167 (1980) and references cited therein for further details and interpretation of the test.

HCT-8 cells = test: in vitro proliferating human colon adenocarcinoma (HCA) cell screen; type: cell-based; details: 60 - 65 hours with compound, nuclei count, 50% inhibition of growth, read-out: ID50 (the source's name)
Experimental: One test protocol is the in vitro proliferating human colon adenocarcinoma (HCA) cell screen. In this test, HCT-8 cells (HCA cell line received from Yale University) are trypsinized using trypsin-EDTA. A single cell suspension is achieved by passing the cells through a 26 gauge needle with a 20 cc syringe. A cell suspension is prepared using RPMI 1640 + 10% FCS + 50 ug/ml gentamicin sulfate with a cell concentration of approximately 30t000 cells/ml. The cell suspension is dispensed in Linbro 24-well plates; 1 ml/well. The plates are incubated for approximately 48 hours at 37 degrees C. in a 5% C02 atmosphere. At this time test compounds are added in the appropriate concentration. Five ul of the 200 ug/ml stock solution is added to each well in a primary test. Ten ul of the appropriate dilution is added to each well for a titration test. The plates are reincubated an additional 60 - 65 hours at 37 degrees C. in a 5% C02 atmosphere. The cells are lysed using a mix of cationic surfactant, glacial acetic acid and sodium chloride. Two ml of the lysed cell suspension from each well is added to 8 ml of diluent. The number of nuclei is determined using a Coulter counter (ZBI model), and a percent growth for each drug concentration is calculated. From this, an ID50 (molar concentration of compound that results in 50% inhibition of growth) is determined.

[2] = tested on: Streptococcus faecalis 05045; test: in vitro antibacterial/antifungal (ABF) agar-disk diffusion assay; type: cell-based; details: Enterococcus faecalis, Dose 500 mg/ml, AM-09 medium, read-out: Inhibition Zone Diameter S. Faecalis
Experimental: (§1) Another test protocol is the in vitro anti- bacterial/antifungal (ABF) test. Compounds are tested for antimicrobial activity in an agar-disk diffusion assay, a standard microbiological technique for testing antibiotics. After incubation of each culture with a test compound, a zone of inhibition is determined. The zone diameter (mm) of active compounds ranges from a minimum of 13.5 mm to as high as 60 mm, with a greater diameter reflecting higher activity. For convenience, values are reported for the gram-negative bacterial species (Escherichia coli 04863), two gram positive bacteria (Bacillus subtilis 04555 and Streptococcus faecalis 05045 utilizing AM-09 medium), and one mycelial fungus (Penicillium avellaneum M2988).

[3] = tested on: Penicillium avellaneum M2988; test: as above; type: cell-based; details: Hamigera avellanea, read-out: Inhibition Zone Diameter P. avellaneum; for zone of inhibition at 500000 µg/mL: Dose 500 mg/ml
Experimental: as §1

Bacillus subtilis 04555 = test: as above; type: cell-based; details: Dose 100 mg/ml, read-out: Inhibition Zone Diameter B. Subtilis
Experimental: as §1

Escherichia coli 04863 = test: as above; type: cell-based; details: Dose 500 mg/ml, read-out: Inhibition Zone Diameter E. Coli
Experimental: as §1

SMILES	P388 Leukemia In Mice T/C X100 ([1]; Dose 3.12 mg/kg intraperitoneally once daily for five days)	IC50 (mouse tumor line L1210; L1210, 72 hours, cell count 50 percent of untreated control)	B16 Melanoma T/C X100 (B16 melanoma; Dose 1.00 mg/kg intraperitoneally once daily for nine days)	IC50 (HCT-8 cells)	IC50 (mouse tumor line L1210; L1210, 72 h)	zone of inhibition at 500000 µg/mL [2]	zone of inhibition at 500000 µg/mL [3]	zone of inhibition at 100000 µg/mL (Bacillus subtilis 04555)	zone of inhibition at 500000 µg/mL (Escherichia coli 04863)	zone of inhibition at 3 g/mL ([3]; Dose 3000 mg/ml)	P388 Leukemia In Mice T/C X100 ([1]; Dose 1.56 mg/kg intraperitoneally once daily for five days)	B16 Melanoma T/C X100 (B16 melanoma; Dose 12.5 mg/kg intraperitoneally once daily for nine days)
CN(C)CCN1C(=O)c2cc([N+](=O)[O-])cc3cc([N+](=O)[O-])cc(c23)C1=O [CH2CH2NMe2, N-[2-(Dimethylamino)ethyl]-3,6,-dinitro-1,8-naphtalamide, Hydrochloride]	167%	36 nM	125%	–	–	–	–	–	–	–	–	–
O=C1c2cc([N+](=O)[O-])cc3cc([N+](=O)[O-])cc(c23)C(=O)N1CCN1CCCC1 [CH2CH2N(CH2)4, 3,6-Dinitro-N[2-(pyrrolidinyl)ethyl]-1,8-naphthalimide Hydrocholoride]	–	–	–	180 nM	83 nM	18 mm	22 mm	16 mm	17 mm	–	–	–
O=C1c2cc([N+](=O)[O-])cc3cc([N+](=O)[O-])cc(c23)C(=O)N1CCN1CCOCC1 [3,6-Dinitro-N-[2-(morpholino)ethyl]-1,8-naphthalimide]	–	–	–	860 nM	1100 nM	14 mm	–	22 mm	–	15 mm	–	–
CCN(CC)CCN1C(=O)c2cc([N+](=O)[O-])cc3cc([N+](=O)[O-])cc(c23)C1=O [CH2CH2NEt2, N-[2-(Diethylamino)ethyl]-3,6-dinitro-1.8-naphthalimide Hydrochloride]	–	–	–	960 nM	350 nM	–	–	–	–	–	155%	–
O=C1c2cc([N+](=O)[O-])cc3cc([N+](=O)[O-])cc(c23)C(=O)N1CCN1CCCCC1 [CH2CH2N(CH2)5, 3,6-Dinitro-N-[2-(piperidinyl)ethyl]-1,8-naphthalimide, Hydrochloride]	–	–	–	480 nM	290 nM	19 mm	26 mm	24 mm	16 mm	–	–	135%
